Peptide text beside a SMILES is read from it. * marks the point of attachment. DOTA = O=C(O)CN1CCN(CC(=O)O)CCN(CC(=O)*)CCN(CC(=O)O)CC1
Legend:
[1] = test system: HEK-293 cells; test: Biotinylated peptide fluorescent microscopy; assay type: cell-based, human; settings: fixed HEK-293 cells, 10 µM biotinylated peptide in PBS, 1 h room temperature, Neutravidin Texas Red detection
Procedure: (§1) All cell lines were grown to 80% confluency and fixed with 4% paraformaldehyde. Cells were dried onto microscope slides overnight followed by rehydration with PBS. Slides were blocked with 5% BSA in PBS for 2 h at room temperature. Biotinylated EGFL6 peptide was diluted to 10 µM in PBS and 100 µL was added to each cell sample for incubation at room temperature for 1 h. Slides were washed 3 times with 0.1% TBST and cells were incubated with Neutravidin Texas Red (Life Technologies, Rockville, MD) diluted to 5 µg/mL in 0.1% TBST for 1 h at room temperature. Washing was performed in the same manner and cells were visualized by an epifluorescent Nikon T1-SM inverted microscope (Nikon, Melville, NY).

[2] = test system: MDA-MB-468 cells; test: Biotinylated peptide fluorescent microscopy; assay type: cell-based, human; settings: fixed MDA-MB-468 cells, 10 µM biotinylated peptide in PBS, 1 h room temperature, Neutravidin Texas Red detection
Procedure: as §1

[3] = test system: MDA-MB-435 cells; test: Biotinylated peptide fluorescent microscopy; assay type: cell-based, human; settings: fixed MDA-MB-435 cells, 10 µM biotinylated peptide in PBS, 1 h room temperature, Neutravidin Texas Red detection
Procedure: as §1

[4] = test system: SK-BR-3 cells; test: Biotinylated peptide fluorescent microscopy; assay type: cell-based, human; settings: fixed SK-BR-3 cells, 10 µM biotinylated peptide in PBS, 1 h room temperature, Neutravidin Texas Red detection
Procedure: as §1

[5] = test system: MDA-MB-435 human breast cancer xenograft; assay type: in vivo, SCID mice; settings: 2 h post-injection, intravenous
Procedure: Four- to 6-week-old Severe Combined Immunodeficient (SCID) out bred mice (Taconic, Germantown, NY) was maintained in approved pathogen-free institutional housing. Animal studies were conducted as outlined in the NIH Guidelines for the Care and Use of Laboratory Animals and the Policy and Procedures for Animal Research of the Harry S. Truman Veterans Memorial Hospital. MDA-MB-435 human breast cancer xenografts (5×10^6) were established by subcutaneous injection into the flank of SCID mice. Mice were utilized when visual tumors (~1–3mm^3) formed after approximately 5 weeks. Radiolabeled, purified ^111In-DOTA-GSG-EGFL6 was diluted to 11.1 MBq in 100 µL of sterile PBS. The peptide was injected intravenously in a mouse bearing an MDA-MB-435 human breast cancer xenograft. Following injection, radiolabeled peptide was permitted to circulate for 2h, followed by euthanization by carbon dioxide. The treated mouse was imaged at the Harry S. Truman Veterans Memorial Hospital Biomolecular Imaging Center. Overnight (7h) image acquisition was performed with a Siemens Inveon Micro-SPECT/CT (Siemens, Knoxville, TN) equipped with mouse whole body 1.0 mm collimators. Data were processed with Inveon Research Workplace processing software and fan beam (Feldkamp) filtered back projection algorithms were used for reconstruction of the CT tomographic image.

[6] = in vivo; parameters: species or system SCID mice; settings: SCID (outbred, Taconic), mouse, iv, total radioactivity
Procedure: Four- to 6-week-old Severe Combined Immunodeficient (SCID) out bred mice (Taconic, Germantown, NY) was maintained in approved pathogen-free institutional housing. Animal studies were conducted as outlined in the NIH Guidelines for the Care and Use of Laboratory Animals and the Policy and Procedures for Animal Research of the Harry S. Truman Veterans Memorial Hospital. MDA-MB-435 human breast cancer xenografts (5×10^6) were established by subcutaneous injection into the flank of SCID mice. Mice were utilized when visual tumors (~1–3mm^3) formed after approximately 5 weeks.
DOTA-EGFL6 peptide was radiolabeled with ^111In and purified peptide was prepared at 1.85 MBq/mL in sterile PBS. Three mice bearing MDA-MB-435 tumors were intravenously injected with ^111In-DOTA-EGFL6 and sacrificed at 2 h. Organs and tissues pertinent to tumor uptake and clearance were excised, weighed, and counted by gamma counter. Percentage of injected dose per gram (%ID/g) of tissue was reported to normalize uptake by tissue mass.

[7] = test system: SK-BR-3 cells; test: 111In-DOTA-EGFL6 cell binding; assay type: cell-based, human; settings: 37°C, 1 h, gamma counter, mean ± SD of 4 samples
Procedure: (§2) DOTA-EGFL6 was diluted to 1 mg/mL in water and incubated with 0.1 M ammonium acetate (pH 5) and 18.5 MBq of ^111In at 80°C for 1 h. Reactions were quenched by addition of 10 µM EDTA. Radiolabeled peptide was purified by reverse phase HPLC using a linear gradient of acetonitrile plus 0.1% trifluoroacetic acid from 5–95% over 35 minutes. Acetonitrile was evaporated by nitrogen gas flow, and peptide was d iluted to appropriate concentration using sterile PBS.
(§3) MDA-MB-435, MDA-MB-468, SK-BR-3 and HEK-293 cells were diluted to 2×10^6 cells/mL in Dulbelco’s Modified Eagle Medium (DMEM) with 0.1 mg/mL BSA. ^111In-DOTA-EGFL6 was diluted to 1×10^7 CPM/mL in DMEM plus 0.1% BSA and 100 µL of peptide was added to 200 µL of cells and incubated at 37°C for 1 h. Cells were washed three times with ice-cold PBS with 1% BSA and counted via gamma counter.

[8] = test system: HEK-293 cells; test: 111In-DOTA-EGFL6 cell binding; assay type: cell-based, human; settings: 37°C, 1 h, gamma counter, mean ± SD of 4 samples
Procedure: as §2, §3

[9] = test system: MDA-MB-468 cells; test: 111In-DOTA-EGFL6 cell binding; assay type: cell-based, human; settings: 37°C, 1 h, gamma counter, mean ± SD of 4 samples
Procedure: as §2, §3

[10] = test system: MDA-MB-435 cells; test: 111In-DOTA-EGFL6 cell binding; assay type: cell-based, human; settings: 37°C, 1 h, gamma counter, mean ± SD of 4 samples
Procedure: as §2, §3

[11] = test system: MDA-MB-435 cells; settings: ref Previous work (reference number not given); cited from earlier work

With “GTKWACCYGWRNSS [Biotinylated EGFL6 peptide, EGFL6 peptide with N-terminal GSG spacer conjugated at the N-terminus with biotin]” the “Peptide binding by fluorescent microscopy” value [1] was “no binding”, the “Peptide binding by fluorescent microscopy” value [2] was “bound strongly” and the “Peptide binding by fluorescent microscopy” value [3] was “bound strongly”.

For GTKWACCYGWRNSS [EGFL6 peptide], the “Peptide binding by fluorescent microscopy” value [4] was “undetectable”.

For `C[C@H](NC(=O)[C@H](Cc1c[nH]c2ccccc12)NC(=O)[C@H](CCCCN)NC(=O)[C@@H](NC(=O)CNC(=O)CNC(=O)[C@H](CO)NC(=O)CNC(=O)CN1CCN(CC(=O)O)CCN(CC(=O)O)CCN(CC(=O)O)CC1)[C@@H](C)O)C(=O)N[C@@H](CS)C(=O)N[C@@H](CS)C(=O)N[C@@H](Cc1ccc(O)cc1)C(=O)NCC(=O)N[C@@H](Cc1c[nH]c2ccccc12)C(=O)N[C@@H](CCCNC(=N)N)C(=O)N[C@@H](CC(N)=O)C(=O)N[C@@H](CO)C(=O)N[C@@H](CO)C(=O)O` [^111In-DOTA-EGFL6, metal not drawn] ({DOTA}-GSGGTKWACCYGWRNSS-OH; N-terminus and C-terminus assumed), the “Radiolabel at interface between xenograft and muscle (vasculature-like binding) in SPECT/CT image” value [5] was “strikingly high concentration of radiolabel”, the “Tumor uptake in SPECT/CT image” value ([5]; 11.1 MBq, one mouse) was “low tumor uptake” and the tissue uptake at 2 h ([6]; Blood retention) was 1.3 ± 0.51 %ID/g. The tissue uptake at 2 h ([6]; Kidney retention) was 28.6 ± 4.24 %ID/g, the tissue uptake at 2 h ([6]; Non-target organ accumulation, all organs measured except the kidneys) was less than 1 %ID/g and the tissue to tissue ratio at 2 h ([6]; Tumor to blood ratio) was 0.27. The tissue to tissue ratio at 2 h ([6]; Tumor to muscle ratio) was 2.7, the tissue uptake at 2 h ([6]; Tumor uptake) was 0.36 ± 0.08 %ID/g and the “Peptide binding, % of total peptide added” value (shortened to “Peptide binding, %”) [7] was 4.7 ± 0.2%. The “Peptide binding, %” value [8] was 5.4 ± 0.5%, the “Peptide binding, %” value [9] was 10.5% ± 2.7 and the “Peptide binding, %” value [10] was 12.3 ± 1.0%.

For “GTKSKCCYSLRRSS [3-G03, phage selected peptide with 64% homology to EGFL6]”, the “Binding to MDA-MB-435 cells in vitro” value [11] is given as “bound to MDA-MB-435 cells”.

From publication PMC4451856, “Identification of a Peptide from In vivo Bacteriophage Display with Homology to EGFL6: A Candidate Tumor Vasculature Ligand in Breast Cancer” (Journal of molecular biomarkers & diagnosis, 2014)
